Results filed as inconclusive are left out.
System: cancer stem cell-like cells viability, luminescence
Test: PubChem AID 449748

## O=[N+]([O-])c1ccc(Cl)c([N+](=O)[O-])c1
  AC50: 4.77 µM
